Columns and labels:
Assay in all cases: KINOMEscan competition binding
Conditions in all cases: compound 10.0 µM
BMP2K (human) = BMP2K (human) (UniProt Q9NSY1)
BMPR1B (human) = BMPR1B (human) (UniProt O00238)
CAMKK2 (human) = CAMKK2 (human) (UniProt Q96RR4)
CDK7 (human) = CDK7 (human) (UniProt P50613)
CLK1 (human) = CLK1 (human) (UniProt P49759)
CLK4 (human) = CLK4 (human) (UniProt Q9HAZ1)
CSNK1D (human) = CSNK1D (human) (UniProt P48730)
CSNK1E (human) = CSNK1E (human) (UniProt P49674)
DAPK2 (human) = DAPK2 (human) (UniProt Q9UIK4)
DYRK1B (human) = DYRK1B (human) (UniProt Q9Y463)
DYRK1B (human), sequence (Q9Y463 whole entry, looked up): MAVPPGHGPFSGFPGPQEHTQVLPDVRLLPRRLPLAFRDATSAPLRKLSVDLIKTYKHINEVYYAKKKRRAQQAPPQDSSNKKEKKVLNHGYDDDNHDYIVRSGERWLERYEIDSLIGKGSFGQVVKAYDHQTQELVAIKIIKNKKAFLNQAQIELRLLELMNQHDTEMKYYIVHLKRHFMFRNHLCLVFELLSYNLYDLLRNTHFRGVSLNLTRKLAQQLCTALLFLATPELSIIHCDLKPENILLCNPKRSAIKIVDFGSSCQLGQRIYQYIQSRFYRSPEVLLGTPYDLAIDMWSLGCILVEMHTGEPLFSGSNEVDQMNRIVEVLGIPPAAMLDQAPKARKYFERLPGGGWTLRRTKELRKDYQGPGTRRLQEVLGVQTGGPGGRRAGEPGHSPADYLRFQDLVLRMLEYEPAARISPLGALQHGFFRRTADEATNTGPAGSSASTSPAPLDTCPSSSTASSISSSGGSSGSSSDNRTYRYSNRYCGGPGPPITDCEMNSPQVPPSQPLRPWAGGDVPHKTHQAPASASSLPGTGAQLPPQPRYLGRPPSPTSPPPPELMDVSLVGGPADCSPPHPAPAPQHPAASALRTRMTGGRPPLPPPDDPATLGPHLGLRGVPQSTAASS

HIPK1 (human) = HIPK1 (human) (UniProt Q86Z02)
MAP4K2 (human) = MAP4K2 (human) (UniProt Q12851)
PIK3CG (human) = PIK3CG (human) (UniProt P48736)
PIP4K2B (human) = PIP4K2B (human) (UniProt P78356)
RIOK1 (human) = RIOK1 (human) (UniProt Q9BRS2)
RIOK1 (human), sequence (Q9BRS2 whole entry, looked up): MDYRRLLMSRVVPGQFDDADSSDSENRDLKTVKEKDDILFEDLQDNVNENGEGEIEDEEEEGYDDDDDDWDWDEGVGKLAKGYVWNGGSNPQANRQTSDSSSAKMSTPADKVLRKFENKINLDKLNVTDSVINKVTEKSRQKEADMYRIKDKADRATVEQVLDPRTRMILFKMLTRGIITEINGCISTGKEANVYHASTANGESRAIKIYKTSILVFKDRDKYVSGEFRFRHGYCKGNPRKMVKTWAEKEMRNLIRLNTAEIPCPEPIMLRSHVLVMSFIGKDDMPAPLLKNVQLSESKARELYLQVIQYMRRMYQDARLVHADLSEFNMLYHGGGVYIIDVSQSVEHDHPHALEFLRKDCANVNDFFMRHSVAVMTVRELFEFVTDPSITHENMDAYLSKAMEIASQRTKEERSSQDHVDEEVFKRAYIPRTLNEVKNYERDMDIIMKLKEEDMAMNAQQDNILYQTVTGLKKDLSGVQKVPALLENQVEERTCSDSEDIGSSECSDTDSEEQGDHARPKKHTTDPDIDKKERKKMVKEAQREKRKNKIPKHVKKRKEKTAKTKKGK

RIOK3 (human) = RIOK3 (human) (UniProt O14730)
RIOK3 (human), sequence (O14730 whole entry, looked up): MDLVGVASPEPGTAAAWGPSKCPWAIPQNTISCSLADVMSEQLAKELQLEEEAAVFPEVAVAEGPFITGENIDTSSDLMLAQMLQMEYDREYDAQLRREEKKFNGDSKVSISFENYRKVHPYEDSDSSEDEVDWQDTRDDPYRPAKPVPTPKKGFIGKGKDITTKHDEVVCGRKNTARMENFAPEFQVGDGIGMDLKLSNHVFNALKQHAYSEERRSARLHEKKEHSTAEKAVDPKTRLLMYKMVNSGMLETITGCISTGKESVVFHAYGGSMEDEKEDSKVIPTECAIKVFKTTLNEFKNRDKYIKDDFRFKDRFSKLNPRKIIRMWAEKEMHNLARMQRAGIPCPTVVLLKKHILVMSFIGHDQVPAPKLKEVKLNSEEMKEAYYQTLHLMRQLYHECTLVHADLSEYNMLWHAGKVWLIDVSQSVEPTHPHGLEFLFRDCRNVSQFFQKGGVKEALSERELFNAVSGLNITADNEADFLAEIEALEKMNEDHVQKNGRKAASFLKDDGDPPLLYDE

SRPK2 (human) = SRPK2 (human) (UniProt P78362)
STK17A (human) = STK17A (human) (UniProt Q9UEE5)
TAOK1 (human) = TAOK1 (human) (UniProt Q7L7X3)
TGFBR2 (human) = TGFBR2 (human) (UniProt P37173)
ACVR2A (human) = ACVR2A (human) (UniProt P27037)
ACVR2A (human), sequence (P27037 whole entry, looked up): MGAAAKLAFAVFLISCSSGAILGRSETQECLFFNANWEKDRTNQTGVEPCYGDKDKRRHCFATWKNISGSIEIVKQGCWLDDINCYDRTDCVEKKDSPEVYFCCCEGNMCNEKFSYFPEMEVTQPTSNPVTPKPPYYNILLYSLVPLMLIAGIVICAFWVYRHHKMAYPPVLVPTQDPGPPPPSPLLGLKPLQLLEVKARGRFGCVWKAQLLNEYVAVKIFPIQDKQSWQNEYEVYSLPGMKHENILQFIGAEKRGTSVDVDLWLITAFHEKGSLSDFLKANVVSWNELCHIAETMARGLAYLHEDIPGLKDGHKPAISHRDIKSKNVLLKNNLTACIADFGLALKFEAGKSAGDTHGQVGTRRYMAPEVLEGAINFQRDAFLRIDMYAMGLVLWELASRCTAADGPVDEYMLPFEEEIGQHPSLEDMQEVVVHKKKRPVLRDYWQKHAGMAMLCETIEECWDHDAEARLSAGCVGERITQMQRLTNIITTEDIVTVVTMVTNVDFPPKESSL

BRSK2 (human) = BRSK2 (human) (UniProt Q8IWQ3)
DCLK3 (human) = DCLK3 (human) (UniProt Q9C098)
[1] = system: FLT3 (human), P36888 [D835H]
[2] = system: FLT3 (human), P36888 [ITD]
GSK3A (human) = GSK3A (human) (UniProt P49840)
KIT (human) = KIT (human) (UniProt P10721)
[3] = system: KIT (human), P10721 [D816V]
[4] = system: KIT (human), P10721 [V559D/T670I]
MAP4K4 (human) = MAP4K4 (human) (UniProt O95819)
MAP4K4 (human), sequence (O95819 whole entry, looked up): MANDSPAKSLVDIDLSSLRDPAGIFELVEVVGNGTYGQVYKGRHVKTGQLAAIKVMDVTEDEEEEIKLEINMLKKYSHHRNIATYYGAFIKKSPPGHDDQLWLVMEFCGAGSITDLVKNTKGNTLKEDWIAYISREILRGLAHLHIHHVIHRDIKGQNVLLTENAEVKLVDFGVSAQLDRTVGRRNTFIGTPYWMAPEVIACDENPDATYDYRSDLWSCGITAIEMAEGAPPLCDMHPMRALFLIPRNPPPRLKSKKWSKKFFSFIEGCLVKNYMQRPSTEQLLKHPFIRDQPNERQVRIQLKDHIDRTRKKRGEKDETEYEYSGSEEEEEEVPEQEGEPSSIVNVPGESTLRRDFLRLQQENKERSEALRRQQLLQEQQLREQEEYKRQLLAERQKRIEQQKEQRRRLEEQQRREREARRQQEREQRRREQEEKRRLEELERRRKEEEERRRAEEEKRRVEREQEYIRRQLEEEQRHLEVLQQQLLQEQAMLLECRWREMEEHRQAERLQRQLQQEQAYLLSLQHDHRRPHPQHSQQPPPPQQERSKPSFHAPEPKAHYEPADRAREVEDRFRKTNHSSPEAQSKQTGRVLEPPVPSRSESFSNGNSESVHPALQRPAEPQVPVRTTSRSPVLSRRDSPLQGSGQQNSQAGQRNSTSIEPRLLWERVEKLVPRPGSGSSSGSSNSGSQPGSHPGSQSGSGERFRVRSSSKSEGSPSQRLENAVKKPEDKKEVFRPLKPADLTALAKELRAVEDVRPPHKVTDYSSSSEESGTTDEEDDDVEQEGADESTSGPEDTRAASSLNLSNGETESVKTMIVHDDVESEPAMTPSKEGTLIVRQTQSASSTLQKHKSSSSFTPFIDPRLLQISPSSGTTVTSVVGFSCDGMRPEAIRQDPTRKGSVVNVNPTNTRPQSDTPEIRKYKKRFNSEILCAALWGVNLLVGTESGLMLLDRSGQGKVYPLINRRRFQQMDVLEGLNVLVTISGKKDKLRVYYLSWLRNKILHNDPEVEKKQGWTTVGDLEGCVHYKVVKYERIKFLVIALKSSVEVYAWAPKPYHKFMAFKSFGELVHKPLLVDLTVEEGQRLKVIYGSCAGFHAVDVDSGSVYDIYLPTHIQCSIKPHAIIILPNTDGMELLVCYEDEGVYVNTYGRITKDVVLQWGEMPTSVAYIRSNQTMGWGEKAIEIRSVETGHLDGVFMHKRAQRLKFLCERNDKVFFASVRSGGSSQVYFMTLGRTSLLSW

MKNK2 (human) = MKNK2 (human) (UniProt Q9HBH9)
RIOK2 (human) = RIOK2 (human) (UniProt Q9BVS4)
TLK1 (human) = TLK1 (human) (UniProt Q9UKI8)
TNK1 (human) = TNK1 (human) (UniProt Q13470)
TNK1 (human), sequence (Q13470 whole entry, looked up): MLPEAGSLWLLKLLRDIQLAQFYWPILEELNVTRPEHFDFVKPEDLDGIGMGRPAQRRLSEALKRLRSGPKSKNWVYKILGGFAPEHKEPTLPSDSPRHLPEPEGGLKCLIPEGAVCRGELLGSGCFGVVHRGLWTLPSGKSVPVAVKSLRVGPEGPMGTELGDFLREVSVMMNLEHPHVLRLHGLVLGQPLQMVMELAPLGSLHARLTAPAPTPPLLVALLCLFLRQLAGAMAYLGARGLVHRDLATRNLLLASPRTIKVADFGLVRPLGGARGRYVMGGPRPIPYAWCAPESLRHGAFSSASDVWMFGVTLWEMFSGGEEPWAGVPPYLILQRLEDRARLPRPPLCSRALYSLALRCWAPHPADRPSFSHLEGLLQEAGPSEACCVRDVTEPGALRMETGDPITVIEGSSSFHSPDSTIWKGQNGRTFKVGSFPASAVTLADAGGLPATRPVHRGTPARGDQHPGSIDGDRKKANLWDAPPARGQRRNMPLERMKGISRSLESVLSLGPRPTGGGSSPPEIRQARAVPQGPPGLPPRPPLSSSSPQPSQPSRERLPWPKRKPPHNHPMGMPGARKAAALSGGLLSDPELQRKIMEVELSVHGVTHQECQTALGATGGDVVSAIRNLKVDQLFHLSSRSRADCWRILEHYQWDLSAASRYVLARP

[5] = target: JAK1 JH2 pseudokinase (human) (UniProt P23458)
[6] = system: KIT (human), P10721 [V559D/V654A]
RPS6KA1 KD2 (human) = RPS6KA1 KD2 (human) (UniProt Q15418)
RPS6KA6 KD2 (human) = RPS6KA6 KD2 (human) (UniProt Q9UK32)
STK24 (human) = STK24 (human) (UniProt Q9Y6E0)
FLT3 (human) = FLT3 (human) (UniProt P36888)
MAP2K4 (human) = MAP2K4 (human) (UniProt P45985)

CDK7 (human), sequence (P50613 whole entry, looked up): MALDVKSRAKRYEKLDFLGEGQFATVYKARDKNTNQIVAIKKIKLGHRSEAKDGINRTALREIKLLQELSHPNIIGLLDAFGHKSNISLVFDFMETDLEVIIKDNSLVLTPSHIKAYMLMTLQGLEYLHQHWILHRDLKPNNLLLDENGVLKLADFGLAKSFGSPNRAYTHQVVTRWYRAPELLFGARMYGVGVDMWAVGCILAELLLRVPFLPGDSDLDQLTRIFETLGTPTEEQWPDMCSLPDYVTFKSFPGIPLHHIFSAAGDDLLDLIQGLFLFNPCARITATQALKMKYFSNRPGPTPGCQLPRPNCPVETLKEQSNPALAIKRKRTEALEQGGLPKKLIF
BMPR1B (human), sequence (O00238 whole entry, looked up): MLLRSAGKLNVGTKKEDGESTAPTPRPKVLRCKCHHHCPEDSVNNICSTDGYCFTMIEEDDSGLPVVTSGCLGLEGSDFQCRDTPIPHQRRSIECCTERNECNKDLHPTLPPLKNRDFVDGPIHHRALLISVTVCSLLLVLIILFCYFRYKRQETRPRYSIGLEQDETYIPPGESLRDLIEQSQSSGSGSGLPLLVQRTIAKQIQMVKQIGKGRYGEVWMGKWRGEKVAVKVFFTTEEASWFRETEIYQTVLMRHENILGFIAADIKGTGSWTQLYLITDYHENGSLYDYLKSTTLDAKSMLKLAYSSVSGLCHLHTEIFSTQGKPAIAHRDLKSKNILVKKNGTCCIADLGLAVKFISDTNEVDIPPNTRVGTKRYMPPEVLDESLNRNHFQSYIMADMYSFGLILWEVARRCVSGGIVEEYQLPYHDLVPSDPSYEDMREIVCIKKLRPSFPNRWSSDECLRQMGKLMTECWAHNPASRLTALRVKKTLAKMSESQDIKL

Row | kinase still bound, per cent of control (BMP2K (human)) [%] | kinase still bound, per cent of control (BMPR1B (human)) [%] | kinase still bound, per cent of control (CAMKK2 (human)) [%] | kinase still bound, per cent of control (CDK7 (human)) [%] | kinase still bound, per cent of control (CLK1 (human)) [%] | kinase still bound, per cent of control (CLK4 (human)) [%] | kinase still bound, per cent of control (CSNK1E (human)) [%] | kinase still bound, per cent of control (DAPK2 (human)) [%] | kinase still bound, per cent of control (DYRK1B (human)) [%] | kinase still bound, per cent of control (HIPK1 (human)) [%] | kinase still bound, per cent of control (MAP4K2 (human)) [%] | kinase still bound, per cent of control (PIK3CG (human)) [%] | kinase still bound, per cent of control (PIP4K2B (human)) [%] | kinase still bound, per cent of control (RIOK1 (human)) [%] | kinase still bound, per cent of control (RIOK3 (human)) [%] | kinase still bound, per cent of control (STK17A (human)) [%] | kinase still bound, per cent of control (TAOK1 (human)) [%] | kinase still bound, per cent of control (TGFBR2 (human)) [%] | kinase still bound, per cent of control (DCLK3 (human)) [%] | kinase still bound, per cent of control (MAP4K4 (human)) [%] | Structure (SMILES) | further results
1 | 1 | 2.2 | 5.8 | 8.8 | 2.1 | 16 | 26 | 0.2 | 0.4 | 0.2 | 30 | 11 | 6.6 | 9.8 | 8.6 | 0.3 | 21 | 26 |  |  | Nc1cccc(-c2cc(/C=C3\SC(=O)NC3=O)c[nH]c2=O)c1 | kinase still bound, per cent of control (CSNK1D (human)): 23%; kinase still bound, per cent of control (SRPK2 (human)): 26%
2 | 22 | 10 |  |  |  |  | 2.8 | 14 | 17 | 19 | 5.8 | 32 |  | 7.8 | 19 | 0.45 | 1.4 | 1.7 | 0.9 | 5.5 | CS(=O)(=O)Nc1ccc(-c2cncc(/C=C3\SC(=N)NC3=O)c2)cc1 | kinase still bound, per cent of control (ACVR2A (human)): 0.9%; kinase still bound, per cent of control (BRSK2 (human)): 28%; kinase still bound, per cent of control (CSNK1D (human)): 1.4%; kinase still bound, per cent of control [1]: 8.7%; kinase still bound, per cent of control [2]: 25%; kinase still bound, per cent of control (GSK3A (human)): 13%; kinase still bound, per cent of control (KIT (human)): 8.2%; kinase still bound, per cent of control [3]: 2.2%; kinase still bound, per cent of control [4]: 31%; kinase still bound, per cent of control (MKNK2 (human)): 24%; kinase still bound, per cent of control (RIOK2 (human)): 23%; kinase still bound, per cent of control (TLK1 (human)): 26%; kinase still bound, per cent of control (TNK1 (human)): 28%
3 | 6.3 | 11 |  | 8.8 | 3.5 | 16 |  | 2.3 | 1 | 0.15 | 32 | 33 | 8.4 | 10 | 9.4 | 0.35 | 32 | 33 | 13 | 9 | N=C1NC(=O)/C(=C/c2c[nH]c(=O)c(-c3ccc(N4CCNCC4)nc3)c2)S1 | 
4 | 2 | 7.4 | 31 | 30 | 18 |  |  | 3.6 | 15 | 2.2 | 7.7 | 13 | 18 | 7.1 | 7.4 | 5 |  | 14 |  |  | CSC1=NC(=O)/C(=C/c2c[nH]c(=O)c(-c3ccc(NS(C)(=O)=O)cc3)c2)S1 | kinase still bound, per cent of control (MAP2K4 (human)): 10%; kinase still bound, per cent of control (RPS6KA1 KD2 (human)): 32%; kinase still bound, per cent of control (SRPK2 (human)): 13%

The remaining lines, values behind:

Row | Structure (SMILES) | kinase still bound, per cent of control (BMP2K (human)) [%] | kinase still bound, per cent of control (BMPR1B (human)) [%] | kinase still bound, per cent of control (CAMKK2 (human)) [%] | kinase still bound, per cent of control (CDK7 (human)) [%] | kinase still bound, per cent of control (CLK1 (human)) [%] | kinase still bound, per cent of control (CLK4 (human)) [%] | kinase still bound, per cent of control (CSNK1E (human)) [%] | kinase still bound, per cent of control (DAPK2 (human)) [%] | kinase still bound, per cent of control (DYRK1B (human)) [%] | kinase still bound, per cent of control (HIPK1 (human)) [%] | kinase still bound, per cent of control (MAP4K2 (human)) [%] | kinase still bound, per cent of control (PIK3CG (human)) [%] | kinase still bound, per cent of control (PIP4K2B (human)) [%] | kinase still bound, per cent of control (RIOK1 (human)) [%] | kinase still bound, per cent of control (RIOK3 (human)) [%] | kinase still bound, per cent of control (STK17A (human)) [%] | kinase still bound, per cent of control (TAOK1 (human)) [%] | kinase still bound, per cent of control (TGFBR2 (human)) [%] | kinase still bound, per cent of control (DCLK3 (human)) [%] | kinase still bound, per cent of control (MAP4K4 (human)) [%] | further results
5 | N=C1NC(=O)/C(=C/c2ccc(-c3csc4ccccc34)o2)S1 |  |  |  |  | 20 | 25 | 22 | 14 | 25 | 0.6 |  |  | 26 |  |  | 0.05 | 18 | 2.4 | 26 |  | kinase still bound, per cent of control (ACVR2A (human)): 10%; kinase still bound, per cent of control (BRSK2 (human)): 18%; kinase still bound, per cent of control (CSNK1D (human)): 34%; kinase still bound, per cent of control (GSK3A (human)): 0%; kinase still bound, per cent of control [5]: 19%; kinase still bound, per cent of control [6]: 24%; kinase still bound, per cent of control (MKNK2 (human)): 34%; kinase still bound, per cent of control (RPS6KA1 KD2 (human)): 14%; kinase still bound, per cent of control (RPS6KA6 KD2 (human)): 18%; kinase still bound, per cent of control (STK24 (human)): 18%; kinase still bound, per cent of control (TLK1 (human)): 11%; kinase still bound, per cent of control (TNK1 (human)): 31%
6 | CS(=O)(=O)Nc1ccc(-c2ncc(/C=C3\SC(=N)NC3=O)s2)cc1 | 29 | 14 | 29 |  |  |  |  | 3.2 | 3.1 |  | 29 |  |  | 27 |  | 2 |  | 12 | 22 | 7.9 | kinase still bound, per cent of control (ACVR2A (human)): 18%; kinase still bound, per cent of control (BRSK2 (human)): 28%; kinase still bound, per cent of control [1]: 23%; kinase still bound, per cent of control [3]: 4.4%; kinase still bound, per cent of control [4]: 32%; kinase still bound, per cent of control (MKNK2 (human)): 13%
7 | CN1C(=O)[C@H]2CCC[C@H]2N(C2CCCC2)c2nc(Nc3ccc(C(N)=O)cc3)ncc21 | 12 |  | 33 | 3.7 | 0.9 | 5.2 | 21 | 8.6 | 2.8 |  | 13 | 11 | 9.6 | 26 |  | 0.05 | 8.7 |  | 1.4 | 3.5 | kinase still bound, per cent of control (FLT3 (human)): 19%; kinase still bound, per cent of control [1]: 11%; kinase still bound, per cent of control [2]: 20%; kinase still bound, per cent of control [5]: 9.2%; kinase still bound, per cent of control [6]: 4.1%; kinase still bound, per cent of control (MAP2K4 (human)): 31%; kinase still bound, per cent of control (MKNK2 (human)): 16%; kinase still bound, per cent of control (RIOK2 (human)): 6%; kinase still bound, per cent of control (RPS6KA1 KD2 (human)): 7.6%; kinase still bound, per cent of control (RPS6KA6 KD2 (human)): 13%; kinase still bound, per cent of control (STK24 (human)): 16%; kinase still bound, per cent of control (TLK1 (human)): 8.6%; kinase still bound, per cent of control (TNK1 (human)): 2%
